The values below come from ChEMBL document CHEMBL1144322, “Structure-based design of potent and selective inhibitors of collagenase-3 (MMP-13)” (Bioorg Med Chem Lett, 2005).

For test [1], the target named is 72 kDa type IV collagenase (Homo sapiens, UniProt P08253). Put plainly: Inhibition of matrix metalloprotease-2.
For the next test, the target named is Stromelysin-1 (Homo sapiens, UniProt P08254). Nature of the test: Inhibition of matrix metalloprotease-3.
Test [2] concerns the target Matrix metalloproteinase-9 (Homo sapiens, UniProt P14780). Nature of the test: Inhibition of matrix metalloprotease-9.
Test [3] concerns the target T1, Collagenase 3 (Homo sapiens, UniProt P45452). Put plainly: Inhibition of matrix metalloprotease-13.
For test [4], the target named is Disintegrin and metalloproteinase domain-containing protein 17 (Homo sapiens, UniProt P78536). Put plainly: Inhibition of TNF-alpha converting enzyme (TACE, ADAM17).
The next test addresses T2, Interstitial collagenase (Homo sapiens, UniProt P03956).
T2 sequence (P03956 whole entry): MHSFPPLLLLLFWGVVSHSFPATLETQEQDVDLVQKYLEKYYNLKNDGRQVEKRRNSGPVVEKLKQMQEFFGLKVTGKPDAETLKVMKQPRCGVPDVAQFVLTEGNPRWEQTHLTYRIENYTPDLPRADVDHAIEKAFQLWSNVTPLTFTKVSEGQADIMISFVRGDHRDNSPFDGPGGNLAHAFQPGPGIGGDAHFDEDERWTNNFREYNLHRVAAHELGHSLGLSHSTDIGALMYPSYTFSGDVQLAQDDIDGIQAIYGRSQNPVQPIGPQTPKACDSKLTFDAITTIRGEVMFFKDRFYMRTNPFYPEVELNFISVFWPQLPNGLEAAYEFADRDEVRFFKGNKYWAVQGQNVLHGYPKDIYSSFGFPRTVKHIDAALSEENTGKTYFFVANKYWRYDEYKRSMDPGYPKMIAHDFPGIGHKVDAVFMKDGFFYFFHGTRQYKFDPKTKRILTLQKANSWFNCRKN
Nature of the test: Inhibition of matrix metalloprotease-1.

Test [5] concerns the target T1, Collagenase 3. Nature of the test: Binding affinity for matrix metalloprotease 13.

Stromelysin-1, sequence (P08254 whole entry): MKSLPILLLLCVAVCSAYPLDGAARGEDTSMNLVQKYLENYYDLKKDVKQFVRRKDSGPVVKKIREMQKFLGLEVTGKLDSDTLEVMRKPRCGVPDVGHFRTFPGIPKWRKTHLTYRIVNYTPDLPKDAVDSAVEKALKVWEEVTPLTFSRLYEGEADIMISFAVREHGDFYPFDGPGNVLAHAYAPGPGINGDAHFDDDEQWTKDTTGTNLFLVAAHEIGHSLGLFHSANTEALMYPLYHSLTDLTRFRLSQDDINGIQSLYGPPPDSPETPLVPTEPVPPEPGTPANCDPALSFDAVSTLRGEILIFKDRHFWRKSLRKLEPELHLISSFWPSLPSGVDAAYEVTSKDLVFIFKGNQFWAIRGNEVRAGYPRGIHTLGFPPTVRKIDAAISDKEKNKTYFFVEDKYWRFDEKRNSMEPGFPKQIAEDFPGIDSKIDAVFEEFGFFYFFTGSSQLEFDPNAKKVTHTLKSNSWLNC
Matrix metalloproteinase-9, sequence (P14780 whole entry): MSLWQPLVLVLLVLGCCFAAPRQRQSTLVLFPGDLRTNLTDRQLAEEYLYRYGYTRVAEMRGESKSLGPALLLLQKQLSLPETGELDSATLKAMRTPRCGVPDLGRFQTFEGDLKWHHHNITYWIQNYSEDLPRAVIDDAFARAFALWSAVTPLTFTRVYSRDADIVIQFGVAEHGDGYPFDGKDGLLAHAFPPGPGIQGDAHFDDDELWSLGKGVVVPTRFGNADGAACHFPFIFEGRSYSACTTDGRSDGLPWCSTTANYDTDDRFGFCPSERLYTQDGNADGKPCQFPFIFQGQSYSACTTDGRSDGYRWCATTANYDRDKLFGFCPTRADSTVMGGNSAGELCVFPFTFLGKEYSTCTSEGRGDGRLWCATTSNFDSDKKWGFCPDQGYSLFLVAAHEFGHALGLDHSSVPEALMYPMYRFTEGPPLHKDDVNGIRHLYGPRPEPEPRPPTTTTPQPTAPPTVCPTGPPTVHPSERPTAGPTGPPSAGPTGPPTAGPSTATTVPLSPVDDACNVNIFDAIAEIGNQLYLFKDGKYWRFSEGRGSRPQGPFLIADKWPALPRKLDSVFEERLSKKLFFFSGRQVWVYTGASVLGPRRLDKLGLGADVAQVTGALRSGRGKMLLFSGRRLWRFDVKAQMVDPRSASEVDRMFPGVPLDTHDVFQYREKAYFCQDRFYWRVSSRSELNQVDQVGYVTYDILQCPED
72 kDa type IV collagenase, sequence (P08253 whole entry): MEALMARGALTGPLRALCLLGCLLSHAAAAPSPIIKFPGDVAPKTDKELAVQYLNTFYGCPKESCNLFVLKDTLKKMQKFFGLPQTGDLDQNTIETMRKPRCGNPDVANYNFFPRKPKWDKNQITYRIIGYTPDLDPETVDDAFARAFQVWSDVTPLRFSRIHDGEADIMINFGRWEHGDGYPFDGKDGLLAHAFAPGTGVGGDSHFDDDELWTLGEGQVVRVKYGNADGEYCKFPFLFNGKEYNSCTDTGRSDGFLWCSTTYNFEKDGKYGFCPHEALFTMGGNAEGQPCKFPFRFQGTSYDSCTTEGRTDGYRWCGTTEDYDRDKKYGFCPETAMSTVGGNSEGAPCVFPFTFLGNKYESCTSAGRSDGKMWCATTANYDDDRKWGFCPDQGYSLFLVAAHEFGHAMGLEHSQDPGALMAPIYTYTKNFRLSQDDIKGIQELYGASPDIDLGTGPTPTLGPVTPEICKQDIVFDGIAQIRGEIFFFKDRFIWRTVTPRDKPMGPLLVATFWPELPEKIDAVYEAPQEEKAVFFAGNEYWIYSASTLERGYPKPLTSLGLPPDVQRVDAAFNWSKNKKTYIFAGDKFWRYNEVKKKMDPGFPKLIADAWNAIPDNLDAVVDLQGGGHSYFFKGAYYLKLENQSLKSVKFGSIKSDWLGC
Disintegrin and metalloproteinase domain-containing protein 17, sequence (P78536 whole entry, the tested form may be a part): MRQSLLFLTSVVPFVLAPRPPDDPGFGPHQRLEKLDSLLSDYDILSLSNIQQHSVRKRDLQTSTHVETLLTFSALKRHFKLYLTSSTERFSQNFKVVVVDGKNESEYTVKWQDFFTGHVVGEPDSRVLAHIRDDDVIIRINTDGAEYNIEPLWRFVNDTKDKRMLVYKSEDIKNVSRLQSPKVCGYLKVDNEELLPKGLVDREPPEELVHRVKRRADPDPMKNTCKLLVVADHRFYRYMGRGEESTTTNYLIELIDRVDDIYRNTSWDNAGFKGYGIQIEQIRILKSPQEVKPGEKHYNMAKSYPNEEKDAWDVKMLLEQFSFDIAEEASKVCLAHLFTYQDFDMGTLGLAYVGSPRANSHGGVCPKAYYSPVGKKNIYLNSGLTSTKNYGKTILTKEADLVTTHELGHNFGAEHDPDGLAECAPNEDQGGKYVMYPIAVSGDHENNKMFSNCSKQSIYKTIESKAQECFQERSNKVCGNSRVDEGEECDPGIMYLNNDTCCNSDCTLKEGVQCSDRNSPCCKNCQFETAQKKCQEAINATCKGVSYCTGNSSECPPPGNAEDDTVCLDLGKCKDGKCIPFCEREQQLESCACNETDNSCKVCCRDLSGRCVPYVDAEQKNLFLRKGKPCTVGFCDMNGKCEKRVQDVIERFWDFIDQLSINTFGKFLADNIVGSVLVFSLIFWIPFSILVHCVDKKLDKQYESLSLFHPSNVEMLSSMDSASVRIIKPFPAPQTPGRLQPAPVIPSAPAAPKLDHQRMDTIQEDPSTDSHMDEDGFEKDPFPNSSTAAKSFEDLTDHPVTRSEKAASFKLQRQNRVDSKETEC

`O=C1NC(=O)C2(CCC(=O)N2c2ccc(Oc3ccc(Oc4ccccc4)cc3)cc2)C(=O)N1`: the Ki (commonly a dissociation constant, usually derived from enzyme kinetics or from competition with a known ligand) in test [1] is 1.8 nM; on Stromelysin-1, 110 nM; in test [2], 1.9 nM; on Collagenase 3 [3] it was 0.33 nM; in test [4], over 1000 nM; at Interstitial collagenase, over 5000 nM.
Turning to `O=C1NC(=O)C2(CCC(=O)N2c2ccc(Oc3ccccc3)cc2)C(=O)N1`, the Ki was 1.6 nM in test [1]; 4500 nM on Stromelysin-1; 4.7 nM in test [2]; 4.7 nM on Collagenase 3 [3]; over 1000 nM in test [4]; over 5000 nM on Interstitial collagenase.
For `COc1ccccc1Oc1ccc(N2C(=O)CCC23C(=O)NC(=O)NC3=O)cc1`, the Ki at Collagenase 3 [3] was determined as 110 nM.
Compound `O=C1NC(=O)C2(CCC(=O)N2c2ccccc2)C(=O)N1` returned an inhibition constant (Ki) at Collagenase 3 [3] of 2200 nM.
On to `O=C1NC(=O)C2(CCC(=O)N2c2ccc(Oc3ccc4c(c3)OCO4)cc2)C(=O)N1`, for which the inhibition constant Ki at Collagenase 3 [3] worked out at 5.8 nM.
Turning to `O=C1NC(=O)C2(CCC(=O)N2c2ccc(Oc3ccc(C(=O)O)cc3)cc2)C(=O)N1`, the Ki is 0.23 nM in test [1]; 3200 nM at Stromelysin-1; 0.72 nM in test [2]; 2.7 nM at Collagenase 3 [3]; over 1000 nM in test [4]; over 5000 nM at Interstitial collagenase.
In the case of `O=C1NC(=O)C2(CCC(=O)N2c2ccc(Oc3ccc(Cl)cc3)cc2)C(=O)N1`, the inhibition constant Ki is 0.43 nM in test [1]; 430 nM on Stromelysin-1; 0.72 nM in test [2]; 0.95 nM at Collagenase 3 [3]; over 1000 nM in test [4]; over 5000 nM on Interstitial collagenase.
In turn, `O=C1NC(=O)C2(CCC(=O)N2c2ccc(-c3ccccc3)cc2)C(=O)N1` came in with a Ki at Collagenase 3 [3] of 934 nM.
For the compound `O=C1NC(=O)C2(CCC(=O)N2c2ccc(Br)cc2)C(=O)N1`, the Ki at Collagenase 3 [3] came to 130 nM.
On Collagenase 3 [3], `O=C1NC(=O)C2(CCC(=O)N2c2ccc(OCc3ccccc3)cc2)C(=O)N1` showed a Ki of 1100 nM.
Consider `COc1cccc(Oc2ccc(N3C(=O)CCC34C(=O)NC(=O)NC4=O)cc2)c1`, for which, at Collagenase 3 [3], the Ki came to 1.9 nM.
With `COC(=O)c1ccc(Oc2ccc(N3C(=O)CCC34C(=O)NC(=O)NC4=O)cc2)cc1`, the Ki in test [1] is 4.7 nM; at Stromelysin-1 it was 1300 nM; in test [2], 1.2 nM; on Collagenase 3 [3], 4.2 nM; in test [4] it was over 1000 nM; on Interstitial collagenase, over 5000 nM.
As for `COc1ccncc1Oc1ccc(N2C(=O)CCC23C(=O)NC(=O)NC3=O)cc1`, the Ki on Collagenase 3 [3] worked out at 25 nM.
For the compound `O=C1NC(=O)C2(CCC(=O)N2c2ccc(Oc3cccc(Cl)c3)cc2)C(=O)N1`, on Collagenase 3 [3], the affinity, expressed as Ki, was 54 nM.
Regarding `CCC1CC(=O)N(c2ccc(Oc3ccccc3)cc2)C12C(=O)NC(=O)NC2=O` (single isomer, unassigned), the Ki in test [1] was 1.7 nM; at Stromelysin-1, 1200 nM; in test [2], 7.2 nM; on Collagenase 3 [5], 4.1 nM; in test [4], over 1000 nM; on Interstitial collagenase, over 5000 nM.
Take `CCC1CC(=O)N(c2ccc(Oc3ccccc3)cc2)C12C(=O)NC(=O)NC2=O` (stereo in doubt): the Ki was 0.4 nM in test [1]; 92 nM at Stromelysin-1; 0.87 nM in test [2]; 0.54 nM on Collagenase 3 [5]; over 1000 nM in test [4]; over 5000 nM on Interstitial collagenase.
